Values quoted from earlier work as cited in patent US7858592B2, “Interfering RNAs against the promoter region of P53” (The Board of Regents of the University of Texas System, priority 2007, dated 2010).
Structures can show the parent of a compound that is named as a salt.

What was measured:
[1] = not given; remark: listed apart in the source
[2] = not given; remark: listed apart in the source

In the case of CC[C@@]1(O)C(=O)OCc2c1cc1n(c2=O)Cc2cc3ccccc3nc2-1 [Camptothecin], the “solubility in water” value is given as “poor water-solubility”.

For O.O=P1(N(CCCl)CCCl)NCCCO1 (stereo not drawn) [Cyclophosphamide, 2H-1,3,2-Oxazaphosphorin-2-amine, N,N-bis(2-chloroethyl)tetrahydro-, 2-oxide, monohydrate], the local tolerability ([1]; oral and parental routes) is listed as “does not cause local vesication, necrosis, phlebitis or even pain”.

For COc1cccc2c1C(=O)c1c(O)c3c(c(O)c1C2=O)C[C@@](O)(C(=O)CO)C[C@@H]3O[C@H]1C[C@H](N)[C@H](O)[C@H](C)O1 [Doxorubicin, 5,12-Naphthacenedione, (8s-cis)-10-[(3-amino-2,3,6-trideoxy-a-L-lyxo-hexopyranosyl)oxy]-7,8,9,10-tetrahydro-6,8,11-trihydroxy-8-(hydroxyacetyl)-1-methoxy-hydrochloride], the “excreted into the urine” value ([2]; in vivo) is listed as “a few percent”.

For O=NN(CCCl)C(=O)NC1CCCCC1 [Lomustine, 1-(2-chloro-ethyl)-3-cyclohexyl-1 nitrosourea], the “tissue levels versus plasma levels” value ([2]; 15 minutes after intravenous administration) is given as “comparable to plasma levels”.

For CC[C@]1(O)C[C@H]2CN(CCc3c([nH]c4ccccc34)[C@@](C(=O)OC)(c3cc4c(cc3OC)N(C=O)[C@H]3[C@@](O)(C(=O)OC)[C@H](OC(C)=O)[C@]5(CC)C=CCN6CC[C@]43[C@@H]65)C2)C1 [Vincristine], the “toxicity for normal marrow cells and epithelial cells” value ([1]; in vivo) is listed as “relatively low toxicity”.

For N[C@H](Cc1ccc(N(CCCl)CCCl)cc1)C(=O)O [medphalan], the “activity relative to the L-isomer” value (certain animal tumors) is given as “less active”.
